Holding throughout (test): AK assay 384-well format, Prestwick library screening
The test system of one assay is E. faecium. In kind it is cell-based, Enterococcus faecium. The conditions noted are these: 50 μM final drug concentration; for fold induction at 50 µM: Enterococcus faecium, 3 h.
Assay [1] concerns S. aureus strain USA300-0114. In kind it is cell-based, Staphylococcus aureus. As to conditions: 50 μM final drug concentration; for fold induction at 50 µM: Staphylococcus aureus, USA300, 3 h.
Another assay relates to K. pneumoniae. Format: cell-based, Klebsiella pneumoniae. The conditions noted are these: 50 μM final drug concentration; for fold induction at 50 µM: Klebsiella pneumoniae, 3 h.
The test system of assay [2] is A. baumannii strain 98-37-09. In kind it is cell-based, Acinetobacter baumannii. The conditions noted are these: 50 μM final drug concentration; for fold induction at 50 µM: Acinetobacter baumannii, 983709, 3 h.
The test system of a further assay is P. aeruginosa. Format: cell-based, Pseudomonas aeruginosa. As to conditions: 50 μM final drug concentration; for fold induction at 50 µM: Pseudomonas aeruginosa, 3 h.
Another assay deals with E. cloacae. In kind it is cell-based, Enterobacter cloacae. The conditions noted are these: 50 μM final drug concentration; for fold induction at 50 µM: Enterobacter cloacae, 3 h.
The subject of a further assay is E. coli. Format: cell-based, Escherichia coli. As to conditions: 50 μM final drug concentration; for fold induction at 50 µM: Escherichia coli, 3 h.
Where [3] appears, read: 384-well format, cutoff for positive-scoring molecules 3-fold increase.

Counter-ions that a name gives are not always drawn. Like-named read-outs stand apart in the source and are kept apart here.

In the case of Iproniazide phosphate, the “AK-based Prestwick Library Screening Results, E. faecium (increase in extracellular AK activity)” value in the assay with E. faecium (setting [3]) was found to be 1.0. In addition, the “AK-based Prestwick Library Screening Results, S. aureus (increase in extracellular AK activity)” value in assay [1] (setting [3]) is recorded as 1.0. The “AK-based Prestwick Library Screening Results, K. pneumoniae (increase in extracellular AK activity)” value with K. pneumoniae (setting [3]) is 0.7. Further, the “AK-based Prestwick Library Screening Results, A. baumannii (increase in extracellular AK activity)” value in assay [2] (setting [3]) came to 0.7. Besides, the “AK-based Prestwick Library Screening Results, P. aeruginosa (increase in extracellular AK activity)” value in the assay with P. aeruginosa (setting [3]) was found to be 0.7. In addition, the “AK-based Prestwick Library Screening Results, E. cloacae (increase in extracellular AK activity)” value in the assay on E. cloacae (setting [3]) was determined as 0.8. Moreover, in the assay on E. coli (setting [3]), the “AK-based Prestwick Library Screening Results, E. coli (increase in extracellular AK activity)” value stood at 0.8.

Take `CN(C)CCn1nnnc1SCC1=C(C(=O)O)N2C(=O)[C@@H](NC(=O)Cc3csc(N)n3)[C@H]2SC1` [Cefotiam hydrochloride]: the fold induction at 50 µM with E. faecium (planktonic E. faecium, 384-well, cutoff for positive-scoring molecules 3-fold increase, read-out: AK-based Prestwick Library Screening Results: E. faecium (increase in extracellular AK activity)) stood at 0.9; in assay [1] (planktonic S. aureus, 384-well, cutoff for positive-scoring molecules 3-fold increase, read-out: AK-based Prestwick Library Screening Results: S. aureus (increase in extracellular AK activity)) it was 2.3; in the assay with K. pneumoniae (planktonic K. pneumoniae, 384-well, cutoff for positive-scoring molecules 3-fold increase, read-out: AK-based Prestwick Library Screening Results: K. pneumoniae (increase in extracellular AK activity)) it was 7.8; in assay [2] (planktonic A. baumannii, 384-well, cutoff for positive-scoring molecules 3-fold increase, read-out: AK-based Prestwick Library Screening Results: A. baumannii (increase in extracellular AK activity)), 0.9; in the assay on P. aeruginosa (planktonic P. aeruginosa, 384-well, cutoff for positive-scoring molecules 3-fold increase, read-out: AK-based Prestwick Library Screening Results: P. aeruginosa (increase in extracellular AK activity)) it was 0.6; with E. cloacae (planktonic E. cloacae, 384-well, cutoff for positive-scoring molecules 3-fold increase, read-out: AK-based Prestwick Library Screening Results: E. cloacae (increase in extracellular AK activity)), 15.6. In addition, in the assay on E. coli (planktonic E. coli, 384-well, cutoff for positive-scoring molecules 3-fold increase, read-out: AK-based Prestwick Library Screening Results: E. coli (increase in extracellular AK activity)), the fold induction at 50 µM came to 23.9.

As for `C[C@]12C[C@H]3S[C@H]3C[C@@H]1CC[C@@H]1[C@@H]2CC[C@]2(C)[C@@H](O)CC[C@@H]12` [Epitiostanol], the fold induction at 50 µM in the assay with E. faecium (planktonic E. faecium, […], read-out: AK-based Prestwick library screening result, E. faecium (fold increase in extracellular AK activity)) was 1; in assay [1] (planktonic S. aureus, […], read-out: AK-based Prestwick library screening result, S. aureus (fold increase in extracellular AK activity)), 0.9; with K. pneumoniae (planktonic K. pneumoniae, […], read-out: AK-based Prestwick library screening result, K. pneumoniae (fold increase in extracellular AK activity)), 0.9; in assay [2] (planktonic A. baumannii, […], read-out: AK-based Prestwick library screening result, A. baumannii (fold increase in extracellular AK activity)) it was 1.1; with P. aeruginosa (planktonic P. aeruginosa, […], read-out: AK-based Prestwick library screening result, P. aeruginosa (fold increase in extracellular AK activity)), 1.1; in the assay on E. cloacae (planktonic E. cloacae, […], read-out: AK-based Prestwick library screening result, E. cloacae (fold increase in extracellular AK activity)), 1.3. In addition, the fold induction at 50 µM in the assay with E. coli (planktonic E. coli, […], read-out: AK-based Prestwick library screening result, E. coli (fold increase in extracellular AK activity)) was 1.2.

With `CC(C)[N+]1(C)[C@@H]2CC[C@H]1CC(OC(=O)C(CO)c1ccccc1)C2.[Br-]` (some centres unmarked) [Ipratropium bromide], the “AK-based Prestwick Library Screening Results, E. faecium (increase in extracellular AK activity)” value with E. faecium (planktonic E. faecium, […]) worked out at 0.9. Also, in assay [1] (planktonic S. aureus, […]), the “AK-based Prestwick Library Screening Results, S. aureus (increase in extracellular AK activity)” value was 0.7. For the same compound, the “AK-based Prestwick Library Screening Results, K. pneumoniae (increase in extracellular AK activity)” value with K. pneumoniae (planktonic K. pneumoniae, […]) was 0.6. Moreover, in assay [2] (planktonic A. baumannii, […]), the “AK-based Prestwick Library Screening Results, A. baumannii (increase in extracellular AK activity)” value is recorded as 0.6. In addition, in the assay on P. aeruginosa (planktonic P. aeruginosa, […]), the “AK-based Prestwick Library Screening Results, P. aeruginosa (increase in extracellular AK activity)” value is on record as 0.8. Further, in the assay with E. cloacae (planktonic E. cloacae, […]), the “AK-based Prestwick Library Screening Results, E. cloacae (increase in extracellular AK activity)” value is listed as 0.8. Also, the “AK-based Prestwick Library Screening Results, E. coli (increase in extracellular AK activity)” value with E. coli (planktonic E. coli, […]) came to 0.6.

Consider `C1CCc2nnnn2CC1` [Pentylenetetrazole], for which the fold induction at 50 µM in the assay with E. faecium (384-well format, cutoff for positive-scoring molecules 3-fold increase, read-out: AK-based Prestwick Library Screening Results, E. faecium (increase in extracellular AK activity)) turned out to be 1; in assay [1] (384-well format, cutoff for positive-scoring molecules 3-fold increase, read-out: AK-based Prestwick Library Screening Results, S. aureus (increase in extracellular AK activity)), 0.7; in the assay with K. pneumoniae (384-well format, cutoff for positive-scoring molecules 3-fold increase, read-out: AK-based Prestwick Library Screening Results, K. pneumoniae (increase in extracellular AK activity)) it was 0.5; in assay [2] (384-well format, cutoff for positive-scoring molecules 3-fold increase, read-out: AK-based Prestwick Library Screening Results, A. baumannii (increase in extracellular AK activity)), 0.6; with P. aeruginosa (384-well format, cutoff for positive-scoring molecules 3-fold increase, read-out: AK-based Prestwick Library Screening Results, P. aeruginosa (increase in extracellular AK activity)), 0.7; in the assay on E. cloacae (384-well format, cutoff for positive-scoring molecules 3-fold increase, read-out: AK-based Prestwick Library Screening Results, E. cloacae (increase in extracellular AK activity)), 0.6. In addition, the fold induction at 50 µM with E. coli (384-well format, […], read-out: AK-based Prestwick Library Screening Results, E. coli (increase in extracellular AK activity)) came out at 0.6.

For `COc1ccc2c(c1)[C@]13CCCC[C@@H]1[C@H](C2)N(C)CC3`, the fold induction at 50 µM in the assay on E. faecium (planktonic E. faecium, […], read-out: AK-based Prestwick Library Screening Results, E. faecium (increase in extracellular AK activity)) worked out at 0.9; in assay [1] (planktonic S. aureus, […], read-out: AK-based Prestwick Library Screening Results, S. aureus (increase in extracellular AK activity)) it was 0.7; with K. pneumoniae (planktonic K. pneumoniae, […], read-out: AK-based Prestwick Library Screening Results, K. pneumoniae (increase in extracellular AK activity)), 0.7; in assay [2] (planktonic A. baumannii, […], read-out: AK-based Prestwick Library Screening Results, A. baumannii (increase in extracellular AK activity)) it was 0.8; with P. aeruginosa (planktonic P. aeruginosa, […], read-out: AK-based Prestwick Library Screening Results, P. aeruginosa (increase in extracellular AK activity)), 0.8; in the assay on E. cloacae (planktonic E. cloacae, […], read-out: AK-based Prestwick Library Screening Results, E. cloacae (increase in extracellular AK activity)) it was 1.1. Also, the fold induction at 50 µM in the assay with E. coli (planktonic E. coli, […], read-out: AK-based Prestwick Library Screening Results, E. coli (increase in extracellular AK activity)) came out at 0.8.

Take `C=C(NC(=O)C(=C)NC(=O)c1csc(C2=N[C@@H]3c4csc(n4)[C@H]4NC(=O)c5csc(n5)[C@H]([C@](C)(O)[C@@H](C)O)NC(=O)[C@H]5CSC(=N5)/C(=C/C)NC(=O)[C@H]([C@@H](C)O)NC(=O)c5csc(n5)[C@]3(CC2)NC(=O)[C@H](C)NC(=O)C(=C)NC(=O)[C@H](C)NC(=O)[C@H]([C@@H](C)CC)N[C@@H]2C=Cc3c([C@H](C)O)cc(nc3[C@H]2O)C(=O)O[C@@H]4C)n1)C(N)=O` [Thiostrepton]: the fold induction at 50 µM in the assay with E. faecium (planktonic, […], read-out: AK-based Prestwick Library Screening Results, E. faecium (fold increase in extracellular AK activity)) worked out at 1; in assay [1] (planktonic, […], read-out: AK-based Prestwick Library Screening Results, S. aureus (fold increase in extracellular AK activity)), 0.4; with K. pneumoniae (planktonic, […], read-out: AK-based Prestwick Library Screening Results, K. pneumoniae (fold increase in extracellular AK activity)), 1; in assay [2] (planktonic, […], read-out: AK-based Prestwick Library Screening Results, A. baumannii (fold increase in extracellular AK activity)) it was 1.1; in the assay with P. aeruginosa (planktonic, […], read-out: AK-based Prestwick Library Screening Results, P. aeruginosa (fold increase in extracellular AK activity)) it was 0.9; in the assay with E. cloacae (planktonic, […], read-out: AK-based Prestwick Library Screening Results, E. cloacae (fold increase in extracellular AK activity)) it was 1.4. The fold induction at 50 µM with E. coli (planktonic, […], read-out: AK-based Prestwick Library Screening Results, E. coli (fold increase in extracellular AK activity)) worked out at 1.3.

Take `CC1=CC(=O)C2=C(C)CC[C@@H]3[C@H](OC(=O)[C@H]3C)[C@@H]12` [Leucomisine]: the “AK-based Prestwick library screening result, E. faecium (fold increase in extracellular AK activity)” value with E. faecium (planktonic E. faecium, positive cutoff 3-fold increase) came out at 1.1. Moreover, in assay [1] (planktonic S. aureus, positive cutoff 3-fold increase), the “AK-based Prestwick library screening result, S. aureus (fold increase in extracellular AK activity)” value is reported as 0.9. In addition, the “AK-based Prestwick library screening result, K. pneumoniae (fold increase in extracellular AK activity)” value with K. pneumoniae (planktonic K. pneumoniae, positive cutoff 3-fold increase) is recorded as 1.0. In addition, the “AK-based Prestwick library screening result, A. baumannii (fold increase in extracellular AK activity)” value in assay [2] (planktonic A. baumannii, positive cutoff 3-fold increase) was 1.0. Besides, the “AK-based Prestwick library screening result, P. aeruginosa (fold increase in extracellular AK activity)” value in the assay with P. aeruginosa (planktonic P. aeruginosa, positive cutoff 3-fold increase) came out at 1.1. In addition, in the assay with E. cloacae (planktonic E. cloacae, positive cutoff 3-fold increase), the “AK-based Prestwick library screening result, E. cloacae (fold increase in extracellular AK activity)” value is given as 1.6. For the same compound, the “AK-based Prestwick library screening result, E. coli (fold increase in extracellular AK activity)” value with E. coli (planktonic E. coli, […]) is 1.3.

The record behind these values is patent US10004701B2, “Methods and compositions for treating infection” (UNIVERSITY OF ROCHESTER, priority 2012, dated 2018).
